In patent US9351515B2, “Nutritional composition and methods of making and using same” (Georgia-Pacific Panel Products LLC, priority 2009, dated 2016):

Tested on: green fluorescent protein labeled Salmonella enterica serovar Typhimurium
Test: Adherence of Salmonella to porcine derived IPEC J2 jejunal cells (Example 4)
Type: cell-based
Conditions: bacteria pre-exposed to 0.05M methyl α-D mannoside
Method: Porcine derived IPEC J2 jejunal cells were seeded onto 8-well chamber slides. […] The cells were exposed to suspensions containing a green fluorescent protein labeled Salmonella enterica serovar Typhimurium previously exposed for 10 minutes to an equal volume of water or to a suspension containing 17.5 mg Nutritional Composition/ml or 0.05M methyl α-D_mannoside. After the addition of treated or untreated bacteria, the chamber slides were incubated to allow attachment to occur and the wells of each slide were washed. Slides were examined by phase contrast microscopy at 1,000× magnification, and numbers of attached cells of the green fluorescent protein labeled Salmonella enterica serovar Typhimurium were counted on 100 randomly selected IPEC J2 cells.

## CO[C@H]1O[C@H](CO)[C@@H](O)[C@H](O)[C@@H]1O [methyl α-D mannoside, methyl α-D-mannoside]
  Salmonella binding to the IPEC J2 cells: no effect
